Series [1] has as its system transplanted rice. The series can be described thus: Test Example 1: effect on crop, application before weed generation under submerged conditions (Table 16, symbol a). It is filed as in vivo. The settings on record: amount of applied herbicide 320 g/ha. The gist of the method: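 Alluvial soil was flooded to 4 cm depth, weed seeds were sown mixed and 2.5-leaf rice seedlings were transplanted. On sowing day, the compound's emulsion, diluted in water to a set dose, was applied to the water surface. Plants grew at 25–30 °C and were scored 0–5 after three weeks.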

Series [2] deals with directly sowed rice. Description: Test Example 3: effect on crop by foliage application, Wagner pot (Table 18, symbol b). It is filed as in vivo. The settings on record: amount of applied herbicide 320 g/ha. The gist of the method:
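Plants were sown in alluvial soil held under 0.1–0.5 cm standing water and grown 14 days in a greenhouse at 25–30 °C. An emulsifiable formulation, water-diluted to the set dose, was then sprayed onto the foliage, and effects were scored three weeks later using previously defined criteria.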

In series [3] the test system is corn. Description: Test Example 5: effect on crop by foliage application, plastic box (Table 20, symbol c). Type of series: in vivo. The settings on record: 320 g/ha, three weeks after application. The method in brief:
(§1)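 Sow seeds spot-wise in sterilized diluvial soil; cover with ~1.5 cm soil. Grow 14 days in greenhouse, 25° C. to 30° C. Spray foliage with emulsion diluted to predetermined amount. Rate effect after 3 weeks.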

Series [4] relates to beet. Description: Test Example 4: effect on crop by soil treatment (Table 19, symbol f). Type of series: in vivo. The note with it: amount of applied herbicide 320 g/ha. The gist of the method: (§2)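 Applied as a water-diluted emulsion, the compound was sprayed onto soil covering newly sown seeds. Evaluation came three weeks after application, in a greenhouse held at 25° C. to 30° C.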

In series [5] the test system is rapeseed. The series can be described thus: Test Example 5: effect on crop by foliage application, plastic box (Table 20, symbol g). It is filed as in vivo. The settings on record: 320 g/ha, three weeks after application. The gist of the method:
as §1

In series [6] the test system is wheat. Description: Test Example 5: effect on crop by foliage application, plastic box (Table 20, symbol e). It is filed as in vivo. The note with it: 320 g/ha, three weeks after application. The gist of the method: as §1
Series [7] has as its system beet. Description: Test Example 5: effect on crop by foliage application, plastic box (Table 20, symbol f). Type of series: in vivo. The note with it: 320 g/ha, three weeks after application. The method in brief: as §1
The subject of series [8] is soybean. The series can be described thus: Test Example 5: effect on crop by foliage application, plastic box (Table 20, symbol d). Type of series: in vivo. The note with it: 320 g/ha, three weeks after application. The gist of the method:
as §1

For series [9], the system named is wheat. The series can be described thus: Test Example 4: effect on crop by soil treatment (Table 19, symbol e). Type of series: in vivo. The note with it: amount of applied herbicide 320 g/ha. The method in brief:
as §2

Series [10] deals with soybean. Description: Test Example 4: effect on crop by soil treatment (Table 19, symbol d). Type of series: in vivo. The settings on record: amount of applied herbicide 320 g/ha. The gist of the method:
as §2

Series [11] relates to corn. Description: Test Example 4: effect on crop by soil treatment (Table 19, symbol c). Type of series: in vivo. The note with it: amount of applied herbicide 320 g/ha. The method in brief: as §2
The subject of series [12] is rapeseed. Description: Test Example 4: effect on crop by soil treatment (Table 19, symbol g). It is filed as in vivo. The note with it: amount of applied herbicide 320 g/ha. The method in brief: as §2

`COc1ccc(-c2oc3ccc(F)cc3c2-c2c(O)c(C)nn(C)c2=O)cc1` [Compound No. 9-020, 4-(5-fluoro-2-(4-methoxyphenyl)benzofuran-3-yl)-5-hydroxy-2,6-dimethylpyridazin-3(2H)-one] returned a melting point of 248 to 250 °C. The “Effect on crop, a: transplanted rice” value in [1] was 0 (Herbicidal rate of 5% or less (almost no effect)). For the same compound, the “Effect on crop b (directly sowed rice), foliage application” value in series [2] is 0 (Herbicidal rate of 5% or less (almost no effect)). Moreover, the “effect on crop corn (c)” value in [3] is 0 (Herbicidal rate of 5% or less (almost no effect)). Moreover, the “f: beet, effect on crop grade” value in [4] is 4 (Herbicidal rate of 70% or more and less than 90%). Besides, in series [5], the “effect on crop rapeseed (g)” value was 5 (Herbicidal rate of 90% or more (almost completely withered)). The “effect on crop wheat (e)” value in series [6] was 3 (Herbicidal rate of 40% or more and less than 70%). Moreover, the “effect on crop beet (f)” value in series [7] is recorded as 5 (Herbicidal rate of 90% or more (almost completely withered)). Further, the “effect on crop soybean (d)” value in series [8] was 3 (Herbicidal rate of 40% or more and less than 70%). Moreover, in [9], the “e: wheat, effect on crop grade” value is 2 (Herbicidal rate of 20% or more and less than 40%). The “d: soybean, effect on crop grade” value in [10] is 0 (Herbicidal rate of 5% or less (almost no effect)). The “c: corn, effect on crop grade” value in [11] is 0 (Herbicidal rate of 5% or less (almost no effect)). Besides, the “g: rapeseed, effect on crop grade” value in series [12] is 5 (Herbicidal rate of 90% or more (almost completely withered)).

These data come from patent US20230085307A1, “PYRIDAZINONE COMPOUND AND HERBICIDE” (NISSAN CHEMICAL CORPORATION, priority 2019, published 2023).
